Test results taken from ChEMBL document CHEMBL5724806, “Unraveling interindividual differences and functional consequences of gut microbial metabolism of immunosuppressants” (2024).

Columns and labels:
Assay type in all cases: ADME
[1] = The drug is tested on Blautia hansenii strain: DSM20583 for biotransformation under anaerobic condition. The drug concentrations were measured over 6 timepoints collected between 0 and 12 hours of incubation by liquid-chromatography-coupled mass spectrometry (LC–MS); parameters: dose 5 uM, timepoint 0, 1.5, 3, 6, 9, 12 hours; conditions: 5 µM
[2] = The drug is tested on the gut metagenome community of T-01 with ENA study accession number: PRJEB31790 for biotransformation under anaerobic condition. The drug concentrations were measured over 7 timepoints collected between 0 and 12 hours of incubation by liquid-chromatography-coupled mass spectrometry (LC–MS); parameters: dose 5 uM, timepoint 0, 0.75, 1.5, 3, 6, 9, 12 hours; conditions: 5 µM
[3] = The drug is tested on Parabacteroides distasonis strain: DSM20701 for biotransformation under anaerobic condition. The drug concentrations were measured over 6 timepoints collected between 0 and 12 hours of incubation by liquid-chromatography-coupled mass spectrometry (LC–MS); parameters: dose 5 uM, timepoint 0, 1.5, 3, 6, 9, 12 hours; conditions: 5 µM
[4] = The drug is tested on Collinsella aerofaciens strain: DSM3979 for biotransformation under anaerobic condition. The drug concentrations were measured over 6 timepoints collected between 0 and 12 hours of incubation by liquid-chromatography-coupled mass spectrometry (LC–MS); parameters: dose 5 uM, timepoint 0, 1.5, 3, 6, 9, 12 hours; conditions: 5 µM
[5] = The drug is tested on the gut metagenome community of A-10 with ENA study accession number: PRJEB31790 for biotransformation under anaerobic condition. The drug concentrations were measured over 7 timepoints collected between 0 and 12 hours of incubation by liquid-chromatography-coupled mass spectrometry (LC–MS); parameters: dose 5 uM, timepoint 0, 0.75, 1.5, 3, 6, 9, 12 hours; conditions: 5 µM
[6] = The drug is tested on Actinomyces graevenitzii strain: DSM15540 for biotransformation under microaerobic condition. The drug concentrations were measured over 6 timepoints collected between 0 and 12 hours of incubation by liquid-chromatography-coupled mass spectrometry (LC–MS); parameters: dose 5 uM, timepoint 0, 1.5, 3, 6, 9, 12 hours; conditions: 5 µM
[7] = The drug is tested on Gemella morbillorum strain: DSM20572 for biotransformation under microaerobic condition. The drug concentrations were measured over 6 timepoints collected between 0 and 12 hours of incubation by liquid-chromatography-coupled mass spectrometry (LC–MS); parameters: dose 5 uM, timepoint 0, 1.5, 3, 6, 9, 12 hours; conditions: 5 µM
[8] = The drug is tested on the gut metagenome community of P-01 with ENA study accession number: PRJEB31790 for biotransformation under microaerobic condition. The drug concentrations were measured over 7 timepoints collected between 0 and 12 hours of incubation by liquid-chromatography-coupled mass spectrometry (LC–MS); parameters: dose 5 uM, timepoint 0, 0.75, 1.5, 3, 6, 9, 12 hours; conditions: 5 µM
[9] = The drug is tested on Streptococcus mitis strain: DSM12643 for biotransformation under microaerobic condition. The drug concentrations were measured over 6 timepoints collected between 0 and 12 hours of incubation by liquid-chromatography-coupled mass spectrometry (LC–MS); parameters: dose 5 uM, timepoint 0, 1.5, 3, 6, 9, 12 hours; conditions: 5 µM
[10] = The drug is tested on Faecalibacterium prausnitzii strain: DSM17677 for biotransformation under anaerobic condition. The drug concentrations were measured over 6 timepoints collected between 0 and 12 hours of incubation by liquid-chromatography-coupled mass spectrometry (LC–MS); parameters: dose 5 uM, timepoint 0, 1.5, 3, 6, 9, 12 hours; conditions: faecalibacterium duncaniae, 5 µM
[11] = The drug is tested on Bifidobacterium adolescentis strain: DSM20083 for biotransformation under anaerobic condition. The drug concentrations were measured over 6 timepoints collected between 0 and 12 hours of incubation by liquid-chromatography-coupled mass spectrometry (LC–MS); parameters: dose 5 uM, timepoint 0, 1.5, 3, 6, 9, 12 hours; conditions: 5 µM
[12] = The drug is tested on Lactobacillus gasseri strain: DSM20243 for biotransformation under microaerobic condition. The drug concentrations were measured over 6 timepoints collected between 0 and 12 hours of incubation by liquid-chromatography-coupled mass spectrometry (LC–MS); parameters: dose 5 uM, timepoint 0, 1.5, 3, 6, 9, 12 hours; conditions: 5 µM
[13] = The drug is tested on Clostridium bolteae strain: DSM15670 for biotransformation under anaerobic condition. The drug concentrations were measured over 6 timepoints collected between 0 and 12 hours of incubation by liquid-chromatography-coupled mass spectrometry (LC–MS); parameters: dose 5 uM, timepoint 0, 1.5, 3, 6, 9, 12 hours; conditions: enterocloster bolteae, 5 µM
[14] = The drug is tested on the gut metagenome community of A-01 with ENA study accession number: PRJEB31790 for biotransformation under anaerobic condition. The drug concentrations were measured over 7 timepoints collected between 0 and 12 hours of incubation by liquid-chromatography-coupled mass spectrometry (LC–MS); parameters: dose 5 uM, timepoint 0, 0.75, 1.5, 3, 6, 9, 12 hours; conditions: 5 µM
[15] = The drug is tested on Actinomyces naeslundi strain: DSM43013 for biotransformation under microaerobic condition. The drug concentrations were measured over 6 timepoints collected between 0 and 12 hours of incubation by liquid-chromatography-coupled mass spectrometry (LC–MS); parameters: dose 5 uM, timepoint 0, 1.5, 3, 6, 9, 12 hours; conditions: actinomyces naeslundii, 5 µM
[16] = The drug is tested on the gut metagenome community of A-09 with ENA study accession number: PRJEB31790 for biotransformation under anaerobic condition. The drug concentrations were measured over 7 timepoints collected between 0 and 12 hours of incubation by liquid-chromatography-coupled mass spectrometry (LC–MS); parameters: dose 5 uM, timepoint 0, 0.75, 1.5, 3, 6, 9, 12 hours; conditions: 5 µM
[17] = The drug is tested on Streptococcus sanguinis strain: DSM20567 for biotransformation under anaerobic condition. The drug concentrations were measured over 6 timepoints collected between 0 and 12 hours of incubation by liquid-chromatography-coupled mass spectrometry (LC–MS); parameters: dose 5 uM, timepoint 0, 1.5, 3, 6, 9, 12 hours; conditions: 5 µM
[18] = The drug is tested on Clostridium scindens strain: DSM5676 for biotransformation under anaerobic condition. The drug concentrations were measured over 6 timepoints collected between 0 and 12 hours of incubation by liquid-chromatography-coupled mass spectrometry (LC–MS); parameters: dose 5 uM, timepoint 0, 1.5, 3, 6, 9, 12 hours; conditions: 5 µM
[19] = The drug is tested on Streptococcus anginosus strain: DSM20563 for biotransformation under anaerobic condition. The drug concentrations were measured over 6 timepoints collected between 0 and 12 hours of incubation by liquid-chromatography-coupled mass spectrometry (LC–MS); parameters: dose 5 uM, timepoint 0, 1.5, 3, 6, 9, 12 hours; conditions: 5 µM
[20] = The drug is tested on Streptococcus mitis strain: DSM12643 for biotransformation under anaerobic condition. The drug concentrations were measured over 6 timepoints collected between 0 and 12 hours of incubation by liquid-chromatography-coupled mass spectrometry (LC–MS); parameters: dose 5 uM, timepoint 0, 1.5, 3, 6, 9, 12 hours; conditions: 5 µM
[21] = The drug is tested on Lactobacillus gasseri strain: DSM20243 for biotransformation under anaerobic condition. The drug concentrations were measured over 6 timepoints collected between 0 and 12 hours of incubation by liquid-chromatography-coupled mass spectrometry (LC–MS); parameters: dose 5 uM, timepoint 0, 1.5, 3, 6, 9, 12 hours; conditions: 5 µM
[22] = The drug is tested on the gut metagenome community of P-03 with ENA study accession number: PRJEB31790 for biotransformation under microaerobic condition. The drug concentrations were measured over 7 timepoints collected between 0 and 12 hours of incubation by liquid-chromatography-coupled mass spectrometry (LC–MS); parameters: dose 5 uM, timepoint 0, 0.75, 1.5, 3, 6, 9, 12 hours; conditions: 5 µM
[23] = The drug is tested on Lactobacillus paracasei strain: ATCC27092 for biotransformation under anaerobic condition. The drug concentrations were measured over 6 timepoints collected between 0 and 12 hours of incubation by liquid-chromatography-coupled mass spectrometry (LC–MS); parameters: dose 5 uM, timepoint 0, 1.5, 3, 6, 9, 12 hours; conditions: lacticaseibacillus paracasei, 5 µM
[24] = The drug is tested on the gut metagenome community of A-03 with ENA study accession number: PRJEB31790 for biotransformation under anaerobic condition. The drug concentrations were measured over 7 timepoints collected between 0 and 12 hours of incubation by liquid-chromatography-coupled mass spectrometry (LC–MS); parameters: dose 5 uM, timepoint 0, 0.75, 1.5, 3, 6, 9, 12 hours; conditions: 5 µM
[25] = The drug is tested on Ruminococcus gnavus strain: ATCC29149 for biotransformation under anaerobic condition. The drug concentrations were measured over 6 timepoints collected between 0 and 12 hours of incubation by liquid-chromatography-coupled mass spectrometry (LC–MS); parameters: dose 5 uM, timepoint 0, 1.5, 3, 6, 9, 12 hours; conditions: mediterraneibacter gnavus, 5 µM
[26] = The drug is tested on Lactobacillus fermentum strain: DSM20052 for biotransformation under microaerobic condition. The drug concentrations were measured over 6 timepoints collected between 0 and 12 hours of incubation by liquid-chromatography-coupled mass spectrometry (LC–MS); parameters: dose 5 uM, timepoint 0, 1.5, 3, 6, 9, 12 hours; conditions: limosilactobacillus fermentum, 5 µM

| SMILES | Bacterial Biotransformation [1] | Bacterial Biotransformation [2] | Bacterial Biotransformation [3] | Bacterial Biotransformation [4] | Bacterial Biotransformation [5] | Bacterial Biotransformation [6] | Bacterial Biotransformation [7] | Bacterial Biotransformation [8] | Bacterial Biotransformation [9] | Bacterial Biotransformation [10] | Bacterial Biotransformation [11] | Bacterial Biotransformation [12] | Bacterial Biotransformation [13] | Bacterial Biotransformation [14] | Bacterial Biotransformation [15] | Bacterial Biotransformation [16] | Bacterial Biotransformation [17] | Bacterial Biotransformation [18] | Bacterial Biotransformation [19] | Bacterial Biotransformation [20] | also measured |
| --- | --- | --- | --- | --- | --- | --- | --- | --- | --- | --- | --- | --- | --- | --- | --- | --- | --- | --- | --- | --- | --- |
| CO[C@H]1C[C@@H]2CC[C@@H](C)[C@@](O)(O2)C(=O)C(=O)N2CCCC[C@H]2C(=O)O[C@H]([C@H](C)C[C@@H]2CC[C@@H](OCCO)[C@H](OC)C2)CC(=O)[C@H](C)/C=C(\C)[C@@H](O)[C@@H](OC)C(=O)[C@H](C)C[C@H](C)/C=C/C=C/C=C/1C [EVEROLIMUS] | Compound metabolized | Compound NOT metabolized | Compound NOT metabolized | Compound metabolized | Compound metabolized | Compound NOT metabolized | Compound NOT metabolized | Compound NOT metabolized | Compound NOT metabolized | Compound NOT metabolized | Compound NOT metabolized | Compound NOT metabolized | Compound metabolized | Compound metabolized | Compound NOT metabolized | Compound metabolized | Compound NOT metabolized | Compound metabolized | Compound NOT metabolized | Compound NOT metabolized | Bacterial Biotransformation [21]: Compound NOT metabolized; Bacterial Biotransformation [22]: Compound NOT metabolized; Bacterial Biotransformation [23]: Compound NOT metabolized; Bacterial Biotransformation [24]: Compound metabolized; Bacterial Biotransformation [25]: Compound NOT metabolized; Bacterial Biotransformation [26]: Compound NOT metabolized |
| NS(=O)(=O)c1cc(C(=O)O)c(NCc2ccco2)cc1Cl [FUROSEMIDE] | Compound NOT metabolized | Compound NOT metabolized | Compound NOT metabolized | Compound NOT metabolized | Compound NOT metabolized | Compound NOT metabolized | Compound NOT metabolized | Compound NOT metabolized | Compound NOT metabolized | Compound NOT metabolized | Compound NOT metabolized | Compound NOT metabolized | Compound NOT metabolized | Compound NOT metabolized | Compound NOT metabolized | Compound NOT metabolized | Compound NOT metabolized | Compound NOT metabolized | Compound NOT metabolized | Compound NOT metabolized | Bacterial Biotransformation [21]: Compound NOT metabolized; Bacterial Biotransformation [22]: Compound NOT metabolized; Bacterial Biotransformation [23]: Compound NOT metabolized; Bacterial Biotransformation [24]: Compound NOT metabolized; Bacterial Biotransformation [25]: Compound NOT metabolized; Bacterial Biotransformation [26]: Compound NOT metabolized |
| C[C@]12CCC(=O)C=C1CC[C@@H]1[C@@H]2[C@@H](O)C[C@@]2(C)[C@H]1CC[C@]2(O)C(=O)CO [HYDROCORTISONE] | Compound NOT metabolized | Compound metabolized | Compound NOT metabolized | Compound NOT metabolized | Compound metabolized | Compound NOT metabolized | Compound NOT metabolized | Compound metabolized | Compound NOT metabolized | Compound NOT metabolized | Compound NOT metabolized | Compound NOT metabolized | Compound metabolized | Compound metabolized | Compound NOT metabolized | Compound metabolized | Compound NOT metabolized | Compound metabolized | Compound NOT metabolized | Compound NOT metabolized | Bacterial Biotransformation [21]: Compound NOT metabolized; Bacterial Biotransformation [22]: Compound metabolized; Bacterial Biotransformation [23]: Compound NOT metabolized; Bacterial Biotransformation [24]: Compound metabolized; Bacterial Biotransformation [25]: Compound metabolized; Bacterial Biotransformation [26]: Compound NOT metabolized |
